Source: patent US9732164B2, “Chitosan-derivative compounds and methods of controlling microbial populations” (SYNEDGEN, INC., priority 2006, dated 2017)

Test system: HeLa cells
Conditions: human, 48 h, 1 micromolar

Compound: CC(=O)O[C@H]1C(=O)[C@@]2(C)[C@H]([C@H](OC(=O)c3ccccc3)[C@]3(O)C[C@H](OC(=O)[C@H](O)[C@@H](NC(=O)c4ccccc4)c4ccccc4)C(C)=C1C3(C)C)[C@]1(OC(C)=O)CO[C@@H]1C[C@@H]2O [taxol]
- HeLa cells killed: ~100%
